Among the data in patent US20050049245A1, “Heteroaryl-ethanolamine derivatives as antiviral agents” (priority 2002, published 2005) are IC50 and melting point values, retold here.

The structures appear in SMILES notation. Read-outs that look alike come from different tables or passages of the source.

As a reminder, the IC50 is the midpoint of a concentration-inhibition curve. In general, melting point refers to the temperature of the solid-liquid transition.

The target in one data set is HSV polymerase (Human herpesvirus 1, UniProt P04293). In words: HSV polymerase assay (Table 1). The class given is biochemical. To be noted: HSV polymerase; read-out: Polymerase IC50 HSV.
HSV polymerase, sequence (P04293 whole entry): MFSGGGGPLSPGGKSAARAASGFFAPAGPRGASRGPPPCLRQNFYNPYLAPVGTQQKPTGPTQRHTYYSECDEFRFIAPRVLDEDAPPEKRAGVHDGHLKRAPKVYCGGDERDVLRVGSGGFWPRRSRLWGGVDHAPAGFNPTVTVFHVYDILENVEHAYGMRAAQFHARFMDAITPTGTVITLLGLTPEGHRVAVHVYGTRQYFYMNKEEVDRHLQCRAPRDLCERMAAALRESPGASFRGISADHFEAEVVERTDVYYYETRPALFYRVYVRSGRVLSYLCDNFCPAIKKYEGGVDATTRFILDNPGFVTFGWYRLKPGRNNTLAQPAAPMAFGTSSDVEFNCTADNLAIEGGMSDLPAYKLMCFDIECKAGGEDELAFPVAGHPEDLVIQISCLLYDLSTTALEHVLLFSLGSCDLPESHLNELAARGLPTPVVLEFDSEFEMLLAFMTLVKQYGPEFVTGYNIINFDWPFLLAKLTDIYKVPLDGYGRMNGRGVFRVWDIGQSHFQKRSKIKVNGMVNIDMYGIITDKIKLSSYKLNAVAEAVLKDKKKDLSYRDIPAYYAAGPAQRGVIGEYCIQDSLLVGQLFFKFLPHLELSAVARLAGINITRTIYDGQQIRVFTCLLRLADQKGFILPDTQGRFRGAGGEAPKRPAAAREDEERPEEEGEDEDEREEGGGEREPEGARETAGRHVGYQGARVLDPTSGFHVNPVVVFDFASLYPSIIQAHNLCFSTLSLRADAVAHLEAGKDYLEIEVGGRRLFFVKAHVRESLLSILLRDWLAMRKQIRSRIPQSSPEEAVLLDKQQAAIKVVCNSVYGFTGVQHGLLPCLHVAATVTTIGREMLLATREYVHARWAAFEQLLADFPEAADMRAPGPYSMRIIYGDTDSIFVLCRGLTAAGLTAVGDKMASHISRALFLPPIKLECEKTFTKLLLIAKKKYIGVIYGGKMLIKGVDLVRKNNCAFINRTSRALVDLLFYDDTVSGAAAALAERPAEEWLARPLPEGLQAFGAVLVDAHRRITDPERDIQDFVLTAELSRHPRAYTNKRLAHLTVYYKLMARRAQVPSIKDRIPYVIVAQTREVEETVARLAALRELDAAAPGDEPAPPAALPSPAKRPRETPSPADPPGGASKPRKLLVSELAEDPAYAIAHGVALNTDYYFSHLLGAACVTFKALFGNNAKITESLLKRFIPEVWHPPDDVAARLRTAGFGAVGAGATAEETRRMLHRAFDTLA
The target of a further data set is VZV polymerase (Varicella-zoster virus, UniProt P09252). In words: VZV polymerase assay (Table 1). The class given is biochemical. The note with it: VZV polymerase; read-out: Polymerase IC50 VZV.
VZV polymerase, sequence (P09252 whole entry): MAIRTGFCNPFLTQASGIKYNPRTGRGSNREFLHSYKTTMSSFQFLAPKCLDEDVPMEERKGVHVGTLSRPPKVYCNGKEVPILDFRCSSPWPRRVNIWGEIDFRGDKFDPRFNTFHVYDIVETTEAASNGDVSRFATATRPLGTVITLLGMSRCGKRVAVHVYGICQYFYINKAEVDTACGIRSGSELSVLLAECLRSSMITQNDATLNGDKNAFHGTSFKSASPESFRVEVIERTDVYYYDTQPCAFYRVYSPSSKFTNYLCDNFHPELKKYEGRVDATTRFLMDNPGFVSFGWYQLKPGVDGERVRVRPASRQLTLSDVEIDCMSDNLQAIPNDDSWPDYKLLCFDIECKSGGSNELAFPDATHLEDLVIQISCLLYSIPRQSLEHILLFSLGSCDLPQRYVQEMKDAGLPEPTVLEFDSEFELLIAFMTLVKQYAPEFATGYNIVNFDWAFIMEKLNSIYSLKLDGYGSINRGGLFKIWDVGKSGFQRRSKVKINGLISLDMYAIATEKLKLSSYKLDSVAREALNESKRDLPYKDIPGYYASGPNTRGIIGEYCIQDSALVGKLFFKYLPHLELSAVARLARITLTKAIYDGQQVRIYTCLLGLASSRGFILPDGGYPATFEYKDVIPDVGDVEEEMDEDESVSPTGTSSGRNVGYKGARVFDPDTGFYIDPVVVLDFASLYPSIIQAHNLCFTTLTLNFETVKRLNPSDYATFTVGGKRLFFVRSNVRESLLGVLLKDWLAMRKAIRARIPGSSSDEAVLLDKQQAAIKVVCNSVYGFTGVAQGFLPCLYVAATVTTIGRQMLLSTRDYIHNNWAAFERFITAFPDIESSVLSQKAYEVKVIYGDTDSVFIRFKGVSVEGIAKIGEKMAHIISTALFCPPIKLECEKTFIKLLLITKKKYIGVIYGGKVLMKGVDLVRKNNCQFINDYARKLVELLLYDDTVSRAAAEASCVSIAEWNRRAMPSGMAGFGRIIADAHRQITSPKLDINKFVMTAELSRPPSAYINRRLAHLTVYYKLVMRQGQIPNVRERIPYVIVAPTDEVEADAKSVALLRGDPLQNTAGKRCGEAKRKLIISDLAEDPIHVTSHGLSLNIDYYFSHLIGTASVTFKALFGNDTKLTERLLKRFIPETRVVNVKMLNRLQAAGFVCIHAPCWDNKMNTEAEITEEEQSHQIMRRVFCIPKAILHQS
Another data set has as its target T1, HCMV polymerase (Human cytomegalovirus, UniProt P08546).
T1 construct: made in house; host or cells: recombinant baculovirus-infected SF-9 cells
As to the kind of experiment: HCMV polymerase scintillation proximity assay (SPA). It counts as biochemical. How it is done:
The HCMV polymerase assay is performed using a scintillation proximity assay (SPA) as described in several references, such as N. D. Cook, et al., Pharmaceutical Manufacturing International, pages 49-53 (1992); KY Takeuchi, Laboratory Practice, September issue (1992); U.S. Pat. No. 4,568,649 (1986); which are incorporated by reference herein. Reactions are performed in 96-well plates. The assay is conducted in 100 yl volume with 5.4 mM HEPES (pH 7.5), 11.7 mM KCl, 4.5 mM MgCl2, 0.36 mg/ml BSA, and 90 nM ^3H-dTTP. Assays are run with and without CHAPS, (3-[(3-Cholamidopropyl)-dimethylammonio]-1-propane-sulfonate) at a final concentration of 2 mM. HCMV polymerase is diluted in enzyme dilution buffer containing 50% glycerol, 250 mM NaCl, 10 mM HEPES (pH 7.5), 100 μg/ml BSA, and 0.01% sodium azide. The HCMV polymerase, which is expressed in recombinant baculovirus-infected SF-9 cells and purified according to literature procedures, is added at 10% (or 10 μl) of the final reaction volume, i.e., 100 μl. Compounds are diluted in 50% DMSO and 10 μl are added to each well. Control wells contain an equivalent concentration of DMSO. Unless noted otherwise, reactions are initiated via the addition of 6 nM biotinylated poly(dA)-oligo(dT) template/primer to reaction mixtures containing the enzyme, substrate, and compounds of interest. Plates are incubated in a 25° C. or 37° C. H2O bath and terminated via the addition of 40 μl/reaction of 0.5 M EDTA (pH 8) per well. Reactions are terminated within the time-frame during which substrate incorporation is linear and varied depending upon the enzyme and conditions used, i.e., 30 min. for HCMV polymerase. Ten (10) μl of streptavidin-SPA beads (20 mg/ml in PBS/10% glycerol) are added following termination of the reaction. Plates are incubated 10 min. at 37° C., then equilibrated to room temperature, and counted on a Packard Topcount. Linear regressions are performed and IC50's are calculated using computer software.
A modified version of the above HCMV polymerase assay is performed as described above, but with the following changes: Compounds are diluted in 100% DMSO until final dilution into assay buffer. In the previous assay, compounds are diluted in 50% DMSO. 4.5 mM Dithiothreitol (DTT) is added to the polymerase buffer.
All results are listed as Polymerase IC50 ([…]) values. In Table 1, the term “n.d.” refers to activity data not determined.

Setting [1] is: HCMV polymerase, SPA, read-out: Polymerase IC50 HCMV.

T1 sequence (P08546 whole entry): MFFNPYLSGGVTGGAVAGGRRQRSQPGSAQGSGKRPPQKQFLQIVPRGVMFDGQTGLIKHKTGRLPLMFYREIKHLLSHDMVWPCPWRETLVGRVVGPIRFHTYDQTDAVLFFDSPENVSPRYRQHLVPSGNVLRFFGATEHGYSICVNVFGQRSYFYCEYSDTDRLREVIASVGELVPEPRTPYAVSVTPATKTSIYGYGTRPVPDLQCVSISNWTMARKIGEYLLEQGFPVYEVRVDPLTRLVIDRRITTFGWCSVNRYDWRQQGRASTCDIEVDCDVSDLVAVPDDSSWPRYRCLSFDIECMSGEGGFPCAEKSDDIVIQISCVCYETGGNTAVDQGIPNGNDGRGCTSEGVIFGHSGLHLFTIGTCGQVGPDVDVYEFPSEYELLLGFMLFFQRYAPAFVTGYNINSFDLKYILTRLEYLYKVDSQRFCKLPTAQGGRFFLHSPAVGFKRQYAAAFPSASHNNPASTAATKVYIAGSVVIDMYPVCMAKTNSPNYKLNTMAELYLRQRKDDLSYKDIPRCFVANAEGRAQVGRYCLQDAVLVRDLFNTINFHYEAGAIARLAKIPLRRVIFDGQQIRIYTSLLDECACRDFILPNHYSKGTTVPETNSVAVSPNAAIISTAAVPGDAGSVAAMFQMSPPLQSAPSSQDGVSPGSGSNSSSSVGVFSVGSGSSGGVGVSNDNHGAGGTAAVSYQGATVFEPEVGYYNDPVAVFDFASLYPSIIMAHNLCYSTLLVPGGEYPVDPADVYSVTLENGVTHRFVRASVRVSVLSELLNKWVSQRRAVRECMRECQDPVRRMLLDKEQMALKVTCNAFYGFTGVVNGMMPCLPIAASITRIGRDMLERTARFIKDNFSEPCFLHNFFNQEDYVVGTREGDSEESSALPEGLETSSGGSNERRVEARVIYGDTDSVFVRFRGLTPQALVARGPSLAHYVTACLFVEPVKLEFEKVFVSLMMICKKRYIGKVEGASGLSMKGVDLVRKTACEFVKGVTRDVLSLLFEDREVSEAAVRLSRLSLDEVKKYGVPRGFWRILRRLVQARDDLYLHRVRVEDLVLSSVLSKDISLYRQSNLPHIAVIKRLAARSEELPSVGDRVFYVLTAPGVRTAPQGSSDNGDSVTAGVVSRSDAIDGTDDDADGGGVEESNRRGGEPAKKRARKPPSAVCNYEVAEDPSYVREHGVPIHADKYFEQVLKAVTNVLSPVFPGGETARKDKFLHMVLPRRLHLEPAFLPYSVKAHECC

Turning to `CN(Cc1cc2c(=O)c(C(=O)NCc3ccc(Cl)cc3)cn(C)c2s1)CC(O)c1ccc(-c2ccccc2)o1` (racemic) [Example 31, rac-N-(4-Chlorobenzyl)-2-(((2-(5-phenyl-2-furyl)-2-hydroxyethyl)(methyl)-amino)methyl)-7-methyl-4-oxo-4,7-dihydrothieno[2,3-b]pyridine-5-carboxamide], the melting point is 177 to 178 °C. Also, on HSV polymerase, the half-inhibitory concentration (IC50) amounted to 120 nM. Moreover, the IC50 on VZV polymerase is 60 nM. Also, the half-maximal inhibitory concentration (IC50) at HCMV polymerase (setting [1]) was determined as 70 nM.

For `CN(Cc1cc2c(=O)c(C(=O)NCc3ccc(Cl)cc3)cn(C)c2s1)CC(O)c1cc2ccccc2n1C` (racemic) [Example 14, rac-N-(4-Chlorobenzyl)-2-(((2-hydroxy-2-(1-methyl-1H-indol-2-yl)ethyl)(methyl)-amino)methyl)-7-methyl-4-oxo-4,7-dihydrothieno[2,3-b]pyridine-5-carboxamide], the melting point is 128 to 132 °C (dec.). For the same molecule, the concentration for half-maximal inhibition (IC50) on HSV polymerase was 530 nM. Also, at VZV polymerase, the half-maximal inhibitory concentration (IC50) turned out to be 120 nM. Also, the IC50 at HCMV polymerase (setting [1]) amounted to 100 nM.

`CN(Cc1cc2c(=O)c(C(=O)NCc3ccc(Cl)cc3)cn(C)c2s1)CC(O)c1c[nH]cn1` (racemic) [Example 10, rac-N-(4-Chlorobenzyl)-2-(((2-hydroxy-2-(1H-imidazol-4-yl)ethyl)(methyl)amino)methyl)-7-methyl-4-oxo-4,7-dihydrothieno[2,3-b]pyridine-5-carboxamide] came in with a melting point of 164 to 169 °C. Besides, the IC50 on HSV polymerase is 1970 nM. In addition, the IC50 at VZV polymerase worked out at 440 nM. Moreover, the 50% inhibitory concentration (IC50) on HCMV polymerase (setting [1]) was found to be 450 nM.

As to `CN(Cc1cc2c(=O)c(C(=O)NCc3ccc(Cl)cc3)cn(C)c2s1)CC(O)c1ccc[nH]1` (racemic) [Example 7, rac-N-(4-Chlorobenzyl)-2-(((2-hydroxy-2-(1H-pyrrol-2-yl)ethyl)(methyl)amino)-methyl)-7-methyl-4-oxo-4,7-dihydrothieno[2,3-b]pyridine-5-carboxamide], the melting point was 169 to 172 °C (dec.). The IC50 at HSV polymerase was found to be 980 nM. Besides, the half-maximal inhibitory concentration (IC50) on VZV polymerase amounted to 330 nM. The IC50 at HCMV polymerase (setting [1]) stood at 300 nM.

Consider `CN(Cc1cc2c(=O)c(C(=O)NCc3ccc(Cl)cc3)cn(C)c2s1)CC(O)c1cc2ccccc2o1` (racemic) [Example 5, rac-2-(((2-(1-Benzofuran-2-yl)-2-hydroxyethyl)(methyl)amino)methyl)-N-(4-chlorobenzyl)-7-methyl-4-oxo-4,7-dihydrothieno[2,3-b]pyridine-5-carboxamide], for which the melting point is 212 to 214 °C. Also, on HSV polymerase, the concentration for half-maximal inhibition (IC50) is 30 nM. Also, the IC50 on VZV polymerase came to 10 nM. Further, the IC50 at HCMV polymerase (setting [1]) was determined as 10 nM.

With `CN(Cc1cc2c(=O)c(C(=O)NCc3ccc(Cl)cc3)cn(C)c2s1)CC(O)c1csc2ccccc12` (racemic) [Example 13, rac-2-(((2-(1-Benzothien-3-yl)-2-hydroxyethyl)(methyl)amino)methyl)-N-(4-chlorobenzyl)-7-methyl-4-oxo-4,7-dihydrothieno[2,3-b]pyridine-5-carboxamide], the melting point was 213 to 219 °C (dec.). The half-inhibitory concentration (IC50) at HSV polymerase is 1920 nM. Further, the IC50 at VZV polymerase is 440 nM. The IC50 on HCMV polymerase (setting [1]) was 170 nM.

The molecule `CN(Cc1cc2c(=O)c(C(=O)NCc3ccc(Cl)cc3)cn(C)c2s1)CC(O)c1ccoc1` (racemic) [Example 4, rac-N-(4-Chlorobenzyl)-2-(((2-(3-furyl)-2-hydroxyethyl)(methyl)amino)methyl)-7-methyl-4-oxo-4,7-dihydrothieno[2,3-b]pyridine-5-carboxamide] gave a melting point of 151 to 153 °C. The IC50 at HSV polymerase amounted to 840 nM. Moreover, the IC50 at VZV polymerase is 390 nM. The IC50 on HCMV polymerase (setting [1]) was determined as 250 nM.

`COCCn1cc(C(=O)NCc2ccc(Cl)cc2)c(=O)c2cc(CN(C)CC(O)c3cc4ccccc4o3)sc21` (racemic) [Example 24, rac-2-(((2-(1-Benzofuran-2-yl)-2-hydroxyethyl)(methyl)amino)methyl)-N-(4-chlorobenzyl)-7-(2-methoxyethyl)-4-oxo-4,7-dihydrothieno[2,3-b]pyridine-5-carboxamide]: the melting point lay within 133 to 140 °C. On HCMV polymerase (setting [1]), the half-inhibitory concentration (IC50) was found to be 310 nM.

In the case of `CCn1cc(C(=O)NCc2ccc(Cl)cc2)c(=O)c2cc(CN(C)C[C@@H](O)c3ccco3)sc21` [Example 20, N-(4-Chlorobenzyl)-7-ethyl-2-((((2R)-2-(2-furyl)-2-hydroxyethyl)(methyl)amino)-methyl)-4-oxo-4,7-dihydrothieno [2,3-b]pyridine-5-carboxamide], the melting point lay within 123 to 127 °C. For the same molecule, the IC50 on HSV polymerase is 460 nM. Further, the concentration for half-maximal inhibition (IC50) at VZV polymerase is 200 nM. Besides, at HCMV polymerase (setting [1]), the IC50 came out at 220 nM.

`Cc1cc(C(O)CN(C)Cc2cc3c(=O)c(C(=O)NCc4ccc(Cl)cc4)cn(C)c3s2)c(C)o1` (racemic) [Example 12, rac-N-(4-Chlorobenzyl)-2-(((2-(2,5-dimethyl-3-furyl)-2-hydroxyethyl)(methyl)-amino)methyl)-7-methyl-4-oxo-4,7-dihydrothieno[2,3-b]pyridine-5-carboxamide] displayed a melting point of 167 to 172 °C. The IC50 at HCMV polymerase (setting [1]) is 280 nM.

Take `CN(Cc1cc2c(=O)c(C(=O)NCc3ccc(Cl)cc3)cn(C)c2s1)CC(O)c1cccn1C` (racemic) [Example 8, rac-N-(4-Chlorobenzyl)-2-(((2-hydroxy-2-(1-methyl-1H-pyrrol-2-yl)ethyl)-(methyl)amino)methyl)-7-methyl-4-oxo-4,7-dihydrothieno[2,3-b]pyridine-5-carboxamide]: the melting point was in the range of 140 to 145 °C. Also, at HSV polymerase, the concentration for half-maximal inhibition (IC50) worked out at 850 nM. Moreover, the IC50 on VZV polymerase worked out at 320 nM. The IC50 at HCMV polymerase (setting [1]) worked out at 260 nM.

On to `CN(Cc1cc2c(=O)c(C(=O)NCc3ccc(Cl)cc3)cn(C)c2s1)CC(O)c1ncc[nH]1` (racemic) [Example 36, rac-N-(4-Chlorobenzyl)-2-(((2-hydroxy-2-(1H-imidazol-2-yl)ethyl)(methyl)-amino)methyl)-7-methyl-4-oxo-4,7-dihydrothieno[2,3-b]pyridine-5-carboxamide], for which the melting point was 177.9 to 179.5 °C. The IC50 on HCMV polymerase (setting [1]) worked out at 830 nM.

Take `CN(Cc1cc2c(=O)c(C(=O)NCc3ccc(Cl)cc3)cn(C)c2s1)CC(O)c1ccn[nH]1` (racemic) [Example 18, rac-N-(4-Chlorobenzyl)-2-(((2-hydroxy-2-(1H-pyrazol-5-yl)ethyl)(methyl)amino)-methyl)-7-methyl-4-oxo-4,7-dihydrothieno[2,3-b]pyridine-5-carboxamide]: the melting point was 177.5 to 178.6 °C. Moreover, at HSV polymerase, the IC50 was 910 nM. Further, at VZV polymerase, the IC50 was determined as 370 nM. Further, the half-inhibitory concentration (IC50) on HCMV polymerase (setting [1]) came to 350 nM.

The molecule `Cc1ccc(C(O)CN(C)Cc2cc3c(=O)c(C(=O)NCc4ccc(Cl)cc4)cn(C)c3s2)o1` (racemic) [Example 3, rac-N-(4-Chlorobenzyl)-2-(((2-hydroxy-2-(5-methyl-2-furyl)ethyl)(methyl)amino)methyl)-7-methyl-4-oxo-4,7-dihydrothieno[2,3-b]pyridine-5-carboxamide] displayed a melting point of 137 to 140 °C. Besides, on HSV polymerase, the IC50 is 260 nM. The 50% inhibitory concentration (IC50) on VZV polymerase is 130 nM. Besides, at HCMV polymerase (setting [1]), the 50% inhibitory concentration (IC50) came to 70 nM.

On to `CN(Cc1cc2c(=O)c(C(=O)NCc3ccc(Cl)cc3)cn(C)c2s1)CC(O)c1c[nH]c2ccccc12` (racemic) [Example 11, rac-N-(4-Chlorobenzyl)-2-(((2-hydroxy-2-(1H-indol-3-yl)ethyl)(methyl)amino)-methyl)-7-methyl-4-oxo-4,7-dihydrothieno[2,3-b]pyridine-5-carboxamide], for which the melting point lay within 120 to 123 °C. For the same molecule, the IC50 on HSV polymerase turned out to be 200 nM. The half-inhibitory concentration (IC50) at VZV polymerase came out at 90 nM. For the same molecule, at HCMV polymerase (setting [1]), the IC50 turned out to be 90 nM.

The molecule `CN(Cc1cc2c(=O)c(C(=O)NCc3ccc(Cl)cc3)cn(C)c2s1)CC(O)c1nccs1` (racemic) [Example 16, rac-N-(4-Chlorobenzyl)-2-(((2-hydroxy-2-(1,3-thiazol-2-yl)ethyl)(methyl)amino)-methyl)-7-methyl-4-oxo-4,7-dihydrothieno[2,3-b]pyridine-5-carboxamide] gave a melting point of 129 to 133 °C. In addition, the IC50 on HSV polymerase is 450 nM. Moreover, the 50% inhibitory concentration (IC50) at VZV polymerase turned out to be 190 nM. This molecule also had a half-inhibitory concentration (IC50) at HCMV polymerase of 200 nM.
